These results are taken from patent US6558900B2, “Regulation of apoptosis and in vitro model for studies thereof” (Emory University, priority 1996, dated 2003).

The test system of this experiment is CPP32. The experiment is described as follows: Reconstitution of dATP-dependent CPP32 activation in HeLa S-100 immunodepleted of cytochrome c. It counts as biochemical, human. How it is done:
Cytochrome c present in the HeLa cell S-100 was immunodepleted as described in the Example 10. In FIG. 7A, 10 μl aliquots of HeLa S-100 (50 μg) (lanes 1 and 2), or 10 μl aliquots of HeLa S-100 immunodepleted of cytochrome c (lanes 3 and 4), or 10 μl of HeLa S-100 immunodepleted of cytochrome c supplemented with 0.2 μg Apaf-2 purified through the Mono S column (H) (lanes 5 and 6), bovine heart cytochrome c (B) (lanes 7 and 8), or rat liver cytochrome c (R) (lanes 9 and 10), were incubated with aliquots of 3 μl in vitro translated, ^35S-labeled CPP32 in the absence (lanes 1, 3, 5, 7, 9) or presence (lanes 2, 4, 6, 8, 10) of 1 mM dATP at 30° C. for 1 hr in a final reaction volume of 20 μl of buffer A. Samples were subjected to SDS-PAGE and transferred to a nitrocellulose filter which were then exposed to film for 16 hr at room temperature. In FIG. 7B, HeLa S-100 (50 μg) immunodepleted of cytochrome c were reconstituted with the indicated amount of Apaf-2 (purified through Mono S column step) in a CPP32 cleavage reaction as described in FIG. 7A. The cleaved products (p20) were quantified in a Fuji-1000 phosphorimager machine and plotted in comparison with that generated by HeLa S-100. In FIG. 7C, aliquots of 50 μl of HeLa S-100 (250 μg) (lanes 1 and 2), or 50 μl of HeLa S-100 immunodepleted of cytochrome c (lanes 3 and 4), or 50 μl of HeLa S-100 immunodepleted of cytochrome c supplemented with 1 μg apaf-2 purified through the Mono S column (H) (lanes 5 and 6), bovine heart cytochrome c (B) (lanes 7 and 8), or rat liver cytochrome c (R) (lanes 9 and 10), were incubated with aliquots of 6 μl hamster liver nuclei in the absence (lanes 1, 3, 5, 7, 9) or presence (lanes 2, 4, 6, 8, 10) of 1 mM dATP at 37° C. for 2 hr in a final reaction volume of 60 μl. The DNA were isolated as described in the Examples, analyzed on 2% agarose gel electrophoresis, and the DNA was visualized by ethidium bromide staining. In FIG. 7D, DNA fragmentation assays were carried out as in FIG. 7C using HeLa S-100 immunodepleted of cytochrome c alone (a,b) or supplemented with Apaf-2 purified through Mono S column step (c,d) in the absence (a,c) or presence of 1 mM dATP (b,d). After 2 hr incubation at 37° C., an aliquot of each reaction (30 μl) was stained with 4′,6′-diamidino-2-phenylindole (DAPI), and observed under a fluorescence microscope with a UV-2A combination filter.
To rule out the possibility that the Apaf-2 activity is due to a minor contaminating protein that co-purified with cytochrome c, an immunodepletion experiment was carried out using a monoclonal antibody against rat cytochrome c. This monoclonal antibody cross-reacts with purified Apaf-2. As shown in FIGS. 7A-7D, HeLa cell S-100 depleted of cytochrome c using the monoclonal anti-cytochrome c antibody lost the dATP-dependent activation of CPP32 and the ability to induce DNA fragmentation in the added nuclei (FIGS. 7A and 7C, lanes 3 and 4). Adding back either the purified Apaf-2 from HeLa cells or the commercial cytochrome c from bovine heart or rat liver to the immunodepleted extracts restored the dATP-dependent activation of CPP32 and DNA fragmentation (FIGS. 7A and 7C, lanes 5-10). The reconstitution of cytochrome c dependent-activation of CPP32 was evident with the addition of 0.01 μg (33 nM) of purified cytochrome c to the cytochrome c-depleted extracts (FIG. 7B).
CPP32 was translated and purified as described above. Aliquot of 3 μl of the in vitro translated CPP32 was incubated with the indicated protein fraction, nucleotides, and 1 mM additional MgCl2 at 30° C. for 1 hour in a final volume of 20 μl of buffer A. At the end of the incubation, 7 μl of 4×SDS sample buffer was added to each reaction. After boiling for 3 min, each sample was subjected to a 15% SDS-polyacrylamide gel electrophoresis (SDS-PAGE). The gel was transferred to a nitrocellulose filter which was subsequently exposed to a Kodak X-OMAT AR X-ray film (Eastman Kodak, Rochester, N.Y.) for 16 hr at room temperature. […]

Where [1] appears, read: added to cytochrome c-depleted extracts.

For the substance “Apaf-2: 15 kDa factor bound to phosphocellulose column, purified from HeLa S-100, identified as human cytochrome c”, the “restoration of dATP-dependent activation of CPP32” value (0.2 μg added to immunodepleted HeLa S-100, 1 mM dATP) was “restored”. Under setting [1], the “amount at which reconstitution of CPP32 activation was evident” value is 0.01 µg and the “concentration at which reconstitution of CPP32 activation was evident” value is reported as 33 nM. Besides, where the note is “addition of 0.3 μg”, the “recovered control activity (p20 cleaved product vs HeLa S-100)” value is reported as “more than 100%”.
